Test results from ChEMBL document CHEMBL1201862, “PubChem BioAssay data set” (2004).
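Compound exposure: 48 hours, 5 concentrations, 96-well plates. GI50 is the concentration that inhibits growth by half.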 The source made the active and inactive calls. Cut-off read from the data, not from the text of the source: active = GI50 up to about 1.1 µM and inactive = higher.

Key:
Assay in all cases: NCI tumour cell line growth inhibition, 48 h
[1] = test system: ACHN
[2] = test system: BT-549
[3] = test system: COLO 205
[4] = test system: HL-60
[5] = test system: HOP-62
[6] = test system: HT-29
[7] = test system: K562
[8] = test system: MDA-MB-231
[9] = test system: MDA-MB-435
[10] = test system: MOLT-4
[11] = test system: NCI-H522
[12] = test system: NCI/ADR-RES
[13] = test system: OVCAR-8
[14] = test system: RXF 393
[15] = test system: SF-295
[16] = test system: SF-539
[17] = test system: SK-OV-3
[18] = test system: SR
[19] = test system: TK-10
[20] = test system: UACC-257

Measured: GI50

C=C1CC(O)C2C(=C)C(=O)OC2C2C(C)C(=O)CC12 (stereo not given)
inactive: [1] 5.32 µM | [2] 7.87 µM | [3] 7.33 µM | [4] 3.01 µM | [5] 19.8 µM | [6] 18.7 µM | [7] 5.98 µM | [8] 20.4 µM | [9] 11.3 µM | [10] 7.03 µM | [11] 5.16 µM | [12] 18.4 µM | [13] 21.3 µM | [14] 4.73 µM | [15] 27.6 µM | [16] 19.7 µM | [17] 33 µM | [18] 9.14 µM | [19] 4.82 µM | [20] 12.6 µM

O=C(O)c1ccc(SSc2ccc(C(=O)O)cn2)nc1
inactive: [1] > 100 µM | [2] > 100 µM | [3] > 100 µM | [4] > 100 µM | [5] > 100 µM | [6] > 100 µM | [7] > 100 µM | [8] > 100 µM | [9] > 100 µM | [10] > 100 µM | [11] > 100 µM | [12] > 100 µM | [13] > 100 µM | [14] > 100 µM | [15] > 100 µM | [16] > 100 µM | [17] > 100 µM | [18] > 100 µM | [19] > 100 µM | [20] > 100 µM

COC(=O)C(Cc1ccc2c(c1)CCCC2)Cc1cc2c(cc1C(O)OC)CCC2 (stereo not given)
inactive: [1] 67.1 µM | [2] > 100 µM | [3] 37.7 µM | [4] 11.8 µM | [5] > 100 µM | [6] 27.7 µM | [7] 35.1 µM | [8] > 100 µM | [9] 38.2 µM | [10] 58.9 µM | [11] 50.1 µM | [12] 32.8 µM | [13] > 100 µM | [14] 24.3 µM | [15] 61.5 µM | [16] 39.1 µM | [17] > 100 µM | [18] 38.5 µM | [19] 62.2 µM | [20] 14.7 µM

C[C@@H](NC(=O)Cn1c(Cl)nc2ccccc21)c1ccccc1
inactive: [1] > 100 µM | [2] > 100 µM | [3] > 100 µM | [4] > 100 µM | [5] > 100 µM | [6] > 100 µM | [7] > 100 µM | [8] > 100 µM | [9] > 100 µM | [10] > 100 µM | [11] 38.2 µM | [12] 33 µM | [13] > 100 µM | [14] > 100 µM | [15] > 100 µM | [16] > 100 µM | [17] > 100 µM | [18] > 100 µM | [19] > 100 µM | [20] > 100 µM

Cc1nnc([C@@]2(C)CC[C@H]3[C@@H](CC=C4C[C@@H](O)CC[C@@]43C)[C@@H]2CC#N)o1
inactive: [1] > 100 µM | [2] > 100 µM | [3] > 100 µM | [4] > 100 µM | [5] > 100 µM | [6] > 100 µM | [7] > 100 µM | [8] > 100 µM | [9] > 100 µM | [10] > 100 µM | [11] 22.5 µM | [12] > 100 µM | [13] > 100 µM | [14] > 100 µM | [15] > 100 µM | [16] > 100 µM | [17] > 100 µM | [18] > 100 µM | [19] > 100 µM | [20] 97.5 µM

CCN(CC)c1ccc2cc(-c3nc(O)c4ccccc4n3)c(=N)oc2c1
inactive: [1] > 100 µM | [2] > 100 µM | [3] > 100 µM | [4] > 100 µM | [5] > 100 µM | [6] > 100 µM | [7] > 100 µM | [8] > 100 µM | [9] > 100 µM | [10] > 100 µM | [11] > 100 µM | [12] > 100 µM | [13] > 100 µM | [14] > 100 µM | [15] > 100 µM | [16] > 100 µM | [17] > 100 µM | [18] > 100 µM | [19] > 100 µM | [20] > 100 µM

C[C@]12CC[C@H]3[C@@H](CC=C4C[C@@H](N5CCCC5)CC[C@@]43C)[C@@H]1C[C@H](N1CCOCC1)[C@@H]2O
inactive: [1] > 100 µM | [2] > 100 µM | [3] > 100 µM | [4] 98.4 µM | [5] > 100 µM | [6] 44.5 µM | [7] 22.5 µM | [8] > 100 µM | [9] 61.2 µM | [10] > 100 µM | [11] > 100 µM | [12] > 100 µM | [13] > 100 µM | [14] > 100 µM | [15] > 100 µM | [16] > 100 µM | [17] > 100 µM | [18] 23.4 µM | [19] > 100 µM | [20] > 100 µM
